According to ChEMBL document CHEMBL4842345, “Design, synthesis and biological evaluation of tanshinone IIA-based analogues: Potent inhibitors of microtubule formation and angiogenesis” (Eur J Med Chem, 2021):
Converted amounts (≈) assume the structure as drawn. The source made the active and inactive calls. No cut-off for these calls is given here.

Legend:
Tubulin (Homo sapiens) [1] = target: T1, Tubulin (Homo sapiens) (UniProt P68371+Q9H4B7+P0DPH7+P68366+Q13509+Q71U36+P04350+Q3ZCM7+P07437+P68363+Q9BQE3+Q6PEY2+Q13885+Q9BVA1+Q9BUF5); experiment: Inhibition of tubulin (unknown origin) polymerization assessed as decrease in fluorescence intensity at 12 uM by fluorescence based assay; assay type: protein-complex assay
Tubulin (Homo sapiens) [2] = target: T1, Tubulin (Homo sapiens); experiment: Induction of microtubule distruption in human A549 cells assessed as spindle shaped microtubule structure at 2.5 to 10 uM measured after 48 hrs by immunofluorescence based laser scanning confocal microscopic analysis; assay type: cell-based; conditions: dose 2.5-10 µM
A549 [3] = experiment: Induction of apoptosis in human A549 cells assessed as late apoptotic cells at 2.5 uM measured after 48 hrs by Annexin V-FITC/PI staining based flow cytometry analysis (Rvb= 1.47%); assay type: functional
Tubulin (Homo sapiens) [4] = target: T1, Tubulin (Homo sapiens); experiment: Displacement of [3H]colchicine binding to tubulin (unknown origin); assay type: protein-complex assay
A549 [5] = experiment: Inhibition of cell migration in human A549 cells assessed as decrease in wound healing rate at 0.5 to 2 uM measured after 48 hrs by wound healing assay; assay type: functional, cell-based; conditions: dose 0.5-2 µM
HUVEC [6] = experiment: Antiinvasive activity in HUVEC cells assessed as decrease in cell invasion at 0.25 to 1 uM measured after 48 hrs by crystal violet staining based transwell assay; assay type: functional; conditions: Homo sapiens, dose 0.25-1 µM
A549 [7] = experiment: Induction of apoptosis in human A549 cells assessed as activation of executioner caspase-3 at 2.5 to 10 uM measured after 48 hrs by western blot analysis; assay type: functional, cell-based; conditions: dose 2.5-10 µM
A549 [8] = experiment: Induction of apoptosis in human A549 cells assessed as activation of the initiator caspase-9 measured after 48 hrs by western blot analysis; assay type: functional, cell-based
Danio rerio [9] = organism: Danio rerio; experiment: Antiangiogenic activity in transgenic Tg(flk:EGFP) zebra fish embryos assessed as disruption of intersegmental vessels formation measured at 30 hrs post fertilization by confocal fluorescence microscopy analysis; assay type: functional, organism-based
A549 [10] = experiment: Induction of cell cycle arrest in human A549 cells assessed as accumulation of cells at G1 phase at 5 uM measured after 48 hrs by flow cytometry analysis (Rvb= 60.29%); assay type: functional
A549 [11] = experiment: Antiproliferative activity against human A549 cells assessed as decrease in DNA synthesis at 2.5 to 10 uM by Edu incorporation assay; assay type: functional, cell-based; conditions: dose 2.5-10 µM
HUVEC [12] = experiment: Antivascular activity against HUVEC cells assessed as reduction in area covered by HUVECs measured after 6 hrs by imaging analysis; assay type: functional, cell-based; conditions: Homo sapiens, dose 0.25-1 µM
A549 [13] = experiment: Induction of apoptosis in human A549 cells assessed as live cells at 5 uM measured after 48 hrs by Annexin V-FITC/PI staining based flow cytometry analysis (Rvb= 97.1%); assay type: functional
A549 [14] = experiment: Induction of cell cycle arrest in human A549 cells assessed as accumulation of cells at G1 phase at 10 uM measured after 48 hrs by flow cytometry analysis (Rvb= 60.29%); assay type: functional
A549 [15] = experiment: Antiproliferative activity against human A549 cells assessed as reduction in cell viability measured after 72 hrs by MTT assay; assay type: functional, cell-based; conditions: A549, 72 h
A549 [16] = experiment: Induction of apoptosis in human A549 cells assessed as early apoptotic cells at 2.5 uM measured after 48 hrs by Annexin V-FITC/PI staining based flow cytometry analysis (Rvb= 0.72%); assay type: functional
A549 [17] = experiment: Induction of apoptosis in human A549 cells assessed as cleavage of PARP at 2.5 to 10 uM measured after 48 hrs by western blot analysis; assay type: functional, cell-based; conditions: dose 2.5-10 µM
A549 [18] = experiment: Induction of apoptosis in human A549 cells assessed as late apoptotic cells at 10 uM measured after 48 hrs by Annexin V-FITC/PI staining based flow cytometry analysis (Rvb= 1.47%); assay type: functional
HUVEC [19] = experiment: Antivascular activity against HUVEC cells assessed as reduction in number of branching points measured after 6 hrs by imaging analysis; assay type: functional, cell-based; conditions: Homo sapiens, dose 0.25-1 µM
HUVEC [20] = experiment: Inhibition of cell migration in HUVEC cells assessed as decrease in number of migrated endothelial cells at 0.25 to 1 uM measured after 48 hrs by crystal violet staining based transwell assay; assay type: functional; conditions: Homo sapiens, dose 0.25-1 µM
HUVEC [21] = experiment: Antivascular activity against HUVEC cells assessed as inhibition of capillary-like tubule formation measured after 6 hrs by matrigel matrix based microscopic analysis; assay type: functional, cell-based; conditions: Homo sapiens, dose 0.25-1 µM
A549 [22] = experiment: Induction of cell cycle arrest in human A549 cells assessed as accumulation of cells at S phase at 5 uM measured after 48 hrs by flow cytometry analysis (Rvb= 24.5%); assay type: functional
A549 [23] = experiment: Induction of cell cycle arrest in human A549 cells assessed as accumulation of cells at S phase at 2.5 uM measured after 48 hrs by flow cytometry analysis (Rvb= 24.5%); assay type: functional
MCF7 = experiment: Antiproliferative activity against human MCF7 cells assessed as reduction in cell viability measured after 72 hrs by MTT assay; assay type: functional, cell-based; conditions: MCF7, 72 h
A549 [24] = experiment: Induction of cell cycle arrest in human A549 cells assessed as accumulation of cells at S phase at 10 uM measured after 48 hrs by flow cytometry analysis (Rvb= 24.5%); assay type: functional
HUVEC [25] = experiment: Inhibition of cell migration in HUVEC cells assessed as decrease in closure of wound scratching measured after 48 hrs by wound healing assay; assay type: functional, cell-based; conditions: Homo sapiens, dose 0.25-1 µM
[26] = Kinetic solubility of the compound at pH 6.5 by nephelometry; assay type: physicochemical; conditions: buffer, read-out: Kinetic_solubility
Danio rerio [27] = organism: Danio rerio; experiment: Antiangiogenic activity in transgenic Tg(flk:EGFP) zebra fish embryos assessed as reduction in number of intersegmental vessels measured at 30 hrs post fertilization by confocal fluorescence microscopy analysis; assay type: functional, organism-based; conditions: dose 1-4 µM
A549 [28] = experiment: Antiinvasive activity in human A549 cells assessed as decrease in number of migrated A549 cells at 0.5 to 2 uM measured after 48 hrs by crystal violet staining based transwell assay; assay type: functional, cell-based; conditions: dose 0.5-2 µM
A549 [29] = experiment: Induction of apoptosis in human A549 cells assessed as late apoptotic cells at 5 uM measured after 48 hrs by Annexin V-FITC/PI staining based flow cytometry analysis (Rvb= 1.47%); assay type: functional
Tubulin (Homo sapiens) [30] = target: T1, Tubulin (Homo sapiens); experiment: Induction of microtubule distruption in human A549 cells assessed as reduction in number of living cells at 2.5 to 10 uM measured after 48 hrs by immunofluorescence based laser scanning confocal microscopic analysis; assay type: cell-based; conditions: dose 2.5-10 µM
A549 [31] = experiment: Induction of cell cycle arrest in human A549 cells assessed as increase in number of cells accumulation at G2/M phase at 2.5 uM measured after 48 hrs by flow cytometry analysis (Rvb= 16.72%); assay type: functional
A549 [32] = experiment: Induction of cell cycle arrest in human A549 cells assessed as increase in number of cells accumulation at G2/M phase at 5 uM measured after 48 hrs by flow cytometry analysis (Rvb= 16.72%); assay type: functional
HepG2 = experiment: Antiproliferative activity against human HepG2 cells assessed as reduction in cell viability measured after 72 hrs by MTT assay; assay type: functional, cell-based; conditions: HepG2, 72 h
Danio rerio [33] = organism: Danio rerio; experiment: Antiangiogenic activity in transgenic Tg(flk:EGFP) zebra fish embryos assessed as reduction in length of intersegmental vessels measured at 30 hrs post fertilization by confocal fluorescence microscopy analysis; assay type: functional, organism-based; conditions: dose 1-4 µM
A549 [34] = experiment: Induction of apoptosis in human A549 cells assessed as live cells at 10 uM measured after 48 hrs by Annexin V-FITC/PI staining based flow cytometry analysis (Rvb= 97.1%); assay type: functional
[35] = Metabolic stability in human liver microsomes assessed as degradation half life; assay type: ADME, Microsome; conditions: microsomes

SMILES: COc1ccc2c(c1)-c1occ(C)c1C(=O)C2=O
- inhibition (Tubulin (Homo sapiens) [1]): Active
- Activity (Tubulin (Homo sapiens) [2]): inactive
- Activity (A549 [3]): 3.28%
- Activity (Tubulin (Homo sapiens) [4]): Active
- inhibition (A549 [5]): Active
- Activity (HUVEC [6]): Active
- Activity (A549 [7]): Active
- Activity (A549 [8]): Dose-Dependent Effect
- Activity (Danio rerio [9]): Dose-Dependent Effect
- Activity (A549 [10]): 54.43%
- Activity (A549 [11]): Active
- Activity (HUVEC [12]): Dose-Dependent Effect
- Activity (A549 [13]): 82.8%
- Activity (A549 [14]): 55.29%
- IC50 (A549 [15]): 0.32 µM
- Activity (A549 [16]): 1.55%
- Activity (A549 [17]): Active
- Activity (A549 [18]): 8.19%
- Activity (HUVEC [19]): Dose-Dependent Effect
- inhibition (HUVEC [20]): Active
- Activity (HUVEC [21]): Active
- Activity (A549 [22]): 25.26%
- Activity (A549 [23]): 21.27%
- IC50 (MCF7): 3.16 µM
- Activity (A549 [24]): 13.48%
- inhibition (HUVEC [25]): Dose-Dependent Effect
- solubility kinetic [26]: 0.405 mg/mL (≈ 1670 µM)
- Activity (Danio rerio [27]): Dose-Dependent Effect
- Activity (A549 [28]): Active
- Activity (A549 [29]): 5.58%
- Activity (Tubulin (Homo sapiens) [30]): Active
- Activity (A549 [31]): 17.41%
- Activity (A549 [32]): 20%
- IC50 (HepG2): 2 µM
- Activity (Danio rerio [33]): Dose-Dependent Effect
- Activity (A549 [34]): 11.1%
- t1/2 [35]: 1.8 h
